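Here, GI50 denotes the concentration required for 50% inhibition of growth. TGI: concentration producing complete growth inhibition.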
Legend:
Assay in all cases: NCI-60 cell line screen, 384-well format
[1] = system: A498 renal
[2] = system: COLO 205 colon
[3] = system: SW-620 colon
[4] = system: RXF 393 renal
[5] = system: CAKI-1 renal
[6] = system: MCF7 breast
[7] = system: HCC-2998 colon
[8] = system: A549 NSCLC
[9] = system: M14 melanoma
[10] = system: HCT-116 colon
[11] = system: NCI-H460 NSCLC
[12] = system: SK-MEL-28 melanoma
[13] = system: OVCAR-4 ovarian
[14] = system: MDA-MB-468 breast
[15] = system: NCI-H322M lung
[16] = system: ACHN renal
[17] = system: UACC-62 melanoma
[18] = system: SK-OV-3 ovarian
[19] = system: PC-3 prostate
[20] = system: UO-31 renal
[21] = system: OVCAR-3 ovarian
[22] = system: KM12 colon
[23] = system: MOLT-4 leukemia
[24] = system: HL-60(TB) leukemia
[25] = system: TK-10 renal
[26] = system: UACC-257 melanoma
[27] = system: SF-268 CNS
[28] = system: RPMI-8226 leukemia
[29] = system: IGROV1 ovarian
[30] = system: BT-549 breast
[31] = system: MDA-MB-231 breast
[32] = system: HOP-92 NSCLC
[33] = system: U251 glioblastoma
[34] = system: NCI-H522 lung
[35] = system: LOX IMVI melanoma
[36] = system: SNB-19 CNS
[37] = system: OVCAR-5 ovarian
[38] = system: HT29 colon
[39] = system: OVCAR-8 ovarian
[40] = system: SK-MEL-2 melanoma
[41] = system: NCI-H23 lung
[42] = system: MDA-MB-435 melanoma
[43] = system: NCI-H226 lung
[44] = system: DU-145 prostate
[45] = system: HOP-62 NSCLC
[46] = system: SF-539 CNS
[47] = system: MALME-3M melanoma
[48] = system: SNB-75 CNS
[49] = system: NCI/ADR-RES ovarian
[50] = system: CCRF-CEM leukemia
[51] = system: EKVX NSCLC
[52] = system: HS 578T breast
[53] = system: SN12C renal
[54] = system: SF-295 CNS
[55] = system: K-562 leukemia
[56] = system: SK-MEL-5 melanoma

With `Cc1cc(-c2cnn3c(NCC4CC(C)(O)C4)cc(Oc4cccnc4)nc23)ccc1C(=O)NC1CC1` (configuration not stated) the GI50 [1] was 0.0921 µM, the TGI [1] was > 100 µM and the GI50 [2] was 0.0394 µM. The TGI [2] was > 100 µM, the GI50 [3] was 0.0621 µM and the TGI [3] was > 100 µM. For the same compound, the GI50 [4] was 0.0645 µM, the TGI [4] was 2.98 µM and the GI50 [5] was 0.56 µM. The TGI [5] was 94.5 µM, the GI50 [6] was 17.2 µM and the TGI [6] was > 100 µM. The GI50 [7] was 5.56 µM, the TGI [7] was > 100 µM and the GI50 [8] was 0.0902 µM. For the same compound, the TGI [8] was > 100 µM, the GI50 [9] was 0.245 µM and the TGI [9] was > 100 µM. For the same compound, the GI50 [10] was 0.049 µM, the TGI [10] was > 100 µM and the GI50 [11] was 0.188 µM. For the same compound, the TGI [11] was 11.9 µM, the GI50 [12] was 11.3 µM and the TGI [12] was > 100 µM. For the same compound, the GI50 [13] was 5.59 µM, the TGI [13] was > 100 µM and the GI50 [14] was 0.352 µM. It also gave a TGI [14] of 4.67 µM, a GI50 [15] of 4.57 µM and a TGI [15] of 21.2 µM. For the same compound, the GI50 [16] was 0.906 µM, the TGI [16] was > 100 µM and the GI50 [17] was 0.972 µM. The TGI [17] was 62.1 µM, the GI50 [18] was 0.903 µM and the TGI [18] was > 100 µM. For the same compound, the GI50 [19] was 1.84 µM, the TGI [19] was > 100 µM and the GI50 [20] was 0.686 µM. The TGI [20] was > 100 µM, the GI50 [21] was 0.173 µM and the TGI [21] was 87.9 µM. The GI50 [22] was 0.0673 µM, the TGI [22] was > 100 µM and the GI50 [23] was 0.0227 µM. It also gave a TGI [23] of 0.0431 µM, a GI50 [24] of 0.0293 µM and a TGI [24] of 0.0636 µM. The GI50 [25] was 0.442 µM, the TGI [25] was > 100 µM and the GI50 [26] was 30.7 µM. For the same compound, the TGI [26] was > 100 µM, the GI50 [27] was 2.18 µM and the TGI [27] was > 100 µM. It also gave a GI50 [28] of 0.305 µM, a TGI [28] of 0.995 µM and a GI50 [29] of 1.01 µM. For the same compound, the TGI [29] was > 100 µM, the GI50 [30] was 0.139 µM and the TGI [30] was > 100 µM. The GI50 [31] was 0.735 µM, the TGI [31] was > 100 µM and the GI50 [32] was 4.88 µM. For the same compound, the TGI [32] was > 100 µM, the GI50 [33] was 0.065 µM and the TGI [33] was > 100 µM. It also gave a GI50 [34] of 0.467 µM, a TGI [34] of 33 µM and a GI50 [35] of 0.0495 µM. The TGI [35] was > 100 µM, the GI50 [36] was > 100 µM and the TGI [36] was > 100 µM. The GI50 [37] was 1.98 µM, the TGI [37] was > 100 µM and the GI50 [38] was 2.11 µM. For the same compound, the TGI [38] was > 100 µM, the GI50 [39] was 0.0804 µM and the TGI [39] was > 100 µM. It also gave a GI50 [40] of 0.431 µM, a TGI [40] of 3.54 µM and a GI50 [41] of 0.374 µM. The TGI [41] was > 100 µM, the GI50 [42] was 6.16 µM and the TGI [42] was > 100 µM. The GI50 [43] was 77.3 µM, the TGI [43] was > 100 µM and the GI50 [44] was 0.0689 µM. For the same compound, the TGI [44] was > 100 µM, the GI50 [45] was 0.0834 µM and the TGI [45] was > 100 µM. For the same compound, the GI50 [46] was 0.0455 µM, the TGI [46] was > 100 µM and the GI50 [47] was 1.09 µM. For the same compound, the TGI [47] was > 100 µM, the GI50 [48] was 1.91 µM and the TGI [48] was > 100 µM. The GI50 [49] was 5.9 µM, the TGI [49] was > 100 µM and the GI50 [50] was 0.0239 µM. The TGI [50] was 0.0507 µM, the GI50 [51] was 1.78 µM and the TGI [51] was > 100 µM. It also gave a GI50 [52] of 0.324 µM, a TGI [52] of 38.4 µM and a GI50 [53] of 1.81 µM. For the same compound, the TGI [53] was > 100 µM, the GI50 [54] was 1.86 µM and the TGI [54] was > 100 µM. For the same compound, the GI50 [55] was 0.818 µM, the TGI [55] was > 100 µM and the GI50 [56] was 0.0745 µM. For the same compound, the TGI [56] was > 100 µM.
